Experimental findings from US9539298B2, “Lissencephaly therapeutic agent” (OSAKA CITY UNIVERSITY, priority 2010, dated 2017) are described below.

The target of test [1] is T1, μ-calpain (derived from human red blood cells) (Homo sapiens, UniProt P07384).
T1 construct: derived from human red blood cells; purchased Cosmo Bio Co., Ltd; host or cells: human red blood cells (tissue-purified)
T1 sequence (P07384 1-714): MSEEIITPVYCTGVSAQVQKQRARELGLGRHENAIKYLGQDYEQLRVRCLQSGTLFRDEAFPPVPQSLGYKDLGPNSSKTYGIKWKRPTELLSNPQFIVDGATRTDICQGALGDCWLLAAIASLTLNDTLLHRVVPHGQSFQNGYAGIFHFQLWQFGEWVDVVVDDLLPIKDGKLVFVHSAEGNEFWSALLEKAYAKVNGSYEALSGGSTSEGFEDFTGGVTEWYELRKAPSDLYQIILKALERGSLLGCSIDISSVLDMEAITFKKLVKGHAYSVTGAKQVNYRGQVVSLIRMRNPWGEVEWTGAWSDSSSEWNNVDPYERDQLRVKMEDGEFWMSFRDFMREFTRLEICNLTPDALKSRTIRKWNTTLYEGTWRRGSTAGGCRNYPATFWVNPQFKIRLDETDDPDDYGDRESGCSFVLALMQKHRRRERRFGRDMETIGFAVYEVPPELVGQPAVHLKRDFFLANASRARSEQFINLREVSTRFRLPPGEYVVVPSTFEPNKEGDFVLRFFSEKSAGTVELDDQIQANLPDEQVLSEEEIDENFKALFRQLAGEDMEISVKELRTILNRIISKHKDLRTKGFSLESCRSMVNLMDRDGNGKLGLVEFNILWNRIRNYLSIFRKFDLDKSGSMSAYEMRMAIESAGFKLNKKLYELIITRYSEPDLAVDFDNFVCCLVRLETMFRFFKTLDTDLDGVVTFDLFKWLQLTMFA
T1 sequence (P04632 1-268 partner): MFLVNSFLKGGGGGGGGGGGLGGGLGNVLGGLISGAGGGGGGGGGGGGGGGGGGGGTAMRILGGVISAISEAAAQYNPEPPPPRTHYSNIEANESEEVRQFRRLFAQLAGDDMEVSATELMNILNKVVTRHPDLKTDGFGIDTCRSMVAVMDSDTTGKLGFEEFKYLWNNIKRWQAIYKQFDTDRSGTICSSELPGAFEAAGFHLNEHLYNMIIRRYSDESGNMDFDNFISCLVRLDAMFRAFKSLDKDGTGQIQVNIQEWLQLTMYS
Nature of the test: Measurement of inhibitory activity against μ-calpain. Conditions: casein substrate, 30° C., 60 minutes; read-out: enzyme inhibitory activities (μM) μ-calpain. It counts as biochemical. As to the method: The inhibitory activity against μ-calpain and m-calpain was assayed according to a published method (Anal. Biochem. 1993, vol. 208, p. 387-392). More specifically, 200 μL of a reaction solution containing 0.5 mg/mL casein, 50 mM Tris-HCl buffer (pH 7.4), 20 mM dithiothreitol and 1.0 nmol μ-calpain (derived from human red blood cells, Cosmo Bio Co., Ltd.) or m-calpain (derived from porcine kidney, Cosmo Bio Co., Ltd.) was added to individual 2.5 μL portions of DMSO solution containing a varying concentration of a test sample in a 96-well plate. Then, 50 μL of 20 mM aqueous calcium chloride was added thereto, and reaction was performed at 30° C. for 60 minutes. 100 μL of the reaction solution was transferred to another 96-well plate, and purified water (50 μL) and 50% aqueous solution (100 μL) of Protein Assay Dye Reagent (available from Bio-Rad Laboratories, Inc.; catalogue No. 500-600) were added thereto. The reaction mixture was allowed to stand at room temperature for 15 minutes, and its absorbance was measured at 595 nm. The absorbance of a reaction mixture prepared in the same manner as mentioned above, except that a DMSO solution containing no sample was used as a control value; and the absorbance of a reaction mixture prepared in the same manner as mentioned above, except that a 1 mM aqueous EDTA solution (50 μL) was used in place of 20 mM aqueous calcium chloride, was used as a blank value. […] Inhibition rate (%){1−(measured value−blank test value)/(control value−blank test value)}×100
The concentrations (IC50) are shown in Table 1 as enzyme (calpain) inhibitory activities (μM).

The subject of test [2] is LIS1 heterozygous mouse embryos. The experiment in a line: LIS1 protein in mouse embryo brains after SNJ-1945 intraperitoneal administration. Format: in vivo. As to the method: A neo(−)129S-Pafah1b1^tm2Awb/J homozygous male mouse lacking neo gene was mated with five homozygous EII-Cre transgenic female mice (FVB/N-Tg (EIIa-cre) C5379Lmgd/J, The Jackson Laboratory) by raising them in the same mouse cage. In total, six sets of mouse cages were prepared for the mating experiment. The neo(−)129S-Pafah1b1^tm2Awb/J homozygous mouse were prepared in the same manner as above. Plug check (confirmation of mating) was carried out every morning between 7 and 10 am, thereby determining the gestation cycle. SNJ-1945 was dissolved in dimethyl sulfoxide (DMSO; Sigma, D8779) at a concentration of 100 mg/ml, and intraperitoneally injected to the pregnant mice so that the administration amount became 100 μg per gram of body weight upon Day 12 of embryo period (E12) (intraperitoneal administration). To determine the effect of SNJ-1945 administration, LIS1 proteins of normal mouse embryos and those of LIS1 heterozygous mouse embryos (administered with SNJ-1945) were measured. […]
Pregnant mice were killed by cervical fracture, and the mouse embryos were immediately isolated to obtain the brain tissues. For the measurement of LIS1 protein amount, the brain weights were immediately measured as soon as the brains were removed.

Consider `COCCOCCOC(=O)N[C@@H](CC(C)C)C(=O)N[C@@H](Cc1ccccc1)C(=O)C(=O)NC1CC1` [compound 17, ((1S)-1-((((1S)-1-Benzyl-2,3-dioxo-3-(cyclopropylamino)propyl)amino)carbonyl)-3-methylbutyl)carbamic acid 5-methoxy-3-oxapentyl ester], for which, in test [1], the IC50 was determined as 0.17 µM. In test [2] (100 μg per gram of body weight IP to pregnant mice, E12, FIG. 6), the “LIS1 protein amount in embryo brain” value is listed as “recovered to a substantially normal level”. For the same molecule, in test [2] (100 μg/g IP to pregnant mice, E12), the “duration of the effect on LIS1 protein after a single dose” value is reported as “continued for at least three days”.
